Test results: patent US10285981B2, “Compositions and methods for treating amyotrophic lateral sclerosis in responders” (KNOPP BIOSCIENCES LLC, priority 2013, dated 2019)
Like-named read-outs stand apart in the source and are kept apart here.

What was measured:
[1] = system: ALS subjects; conditions: human, in vivo
[2] = system: ALS subjects; conditions: even after prolonged treatment; cited from earlier work
[3] = system: subjects with ALS; conditions: larger Phase III study; cited from earlier work
[4] = system: subjects with ALS
Source text: Subjects with possible, probable, probable laboratory-supported, or definite ALS as defined by the El Escorial criteria who had ALS symptoms for ≤24 months at the time of entry into the study and a slow vital capacity of ≥65% of predicted were eligible to participate in this study. This study is described in more detail in the Examples.
Eligible subjects were between 18-80 years of age with a clinical diagnosis of possible, laboratory-supported probable, probable, or definite ALS, either familial or sporadic, in accordance with the revised El Escorial criteria. Subjects were required to have had onset of first ALS symptoms ≤24 months before Day 1 and an upright vital capacity of ≥65% of predicted value for age, height, and gender at screening. […] Subjects had to be able to swallow oral medications on Day 1 (FIG. 1).
Clinic visits and telephone calls/home visits may have occurred on alternating months. The primary efficacy analysis was a Combined Assessment of Function and Survival (CAFS), based on changes from baseline in the ALS Functional Rating Score-Revised (ALSFRS-R) scores or time to death using follow-up data through 12 months. […] Efficacy data was evaluated using 2-sided tests with α=0.05 for the primary and secondary endpoints. Adverse events and other safety indices were monitored throughout the study.
The primary endpoint of the method of Example 2 was the Combined Assessment of Function and Survival (CAFS), a joint-rank test that is a valid statistical approach for analyzing functional outcomes adjusted for mortality. The CAFS ranks subjects' outcomes based on both time to death and change from baseline in ALSFRS-R score using follow-up data through 12 months. CAFS is predicated on the comparison of outcomes of each subject to all other subjects in the study. A higher rank is assigned to subjects who survive versus those who die, and the change from baseline in the ALSFRS-R is used to rank each survivor. A higher CAFS ranking indicates a better global clinical outcome.
The ALSFRS-R score, VC, and McGill QoL-SIS scores were summarized by treatment group with the rate of change estimate derived from a linear mixed-effects model. Linear decline of the ALSFRS-R score over time has been shown previously. […] A mixed-model analysis was used to fit a model that included time, treatment group, and the interaction between time and treatment group simultaneously. The estimated coefficient of time, the slope, or rate of change, for each treatment group was used to test for differences between the treatment groups. Coefficient of time estimate along with its standard error was reported.

[5] = system: subjects with ALS; conditions: for decline in levels of serum creatinine: Part One; for mean decline in serum creatinine: Week 28
Source text: Therefore, the Part 2, Week 28 visit was pre-specified as the primary time-point for all Part 2 data analyses.

[6] = system: subjects with ALS; remark: listed apart in the source
Source text: Response is defined according to two criteria:
This analysis examined subgroup definitions based on both single and dual attribute criteria, and evaluated the performance of each subgroup with respect the two criteria above. To facilitate ranking of subgroups, we have defined a scoring metric which aggregates these two-dimensional scores into a single scalar called “score” in our report files. Larger scores are better: scores increase when mortality rates decrease, and when ALSFRS-R changes from baseline become more positive (i.e. score decreases are reduced). This scoring scheme is somewhat arbitrary; it merely serves to guide our maximization process and provide convenient rankings of subgroup quality. The definition of the score could certainly be altered to reflect different priorities on treatment effects with respect to mortality or disease progression. For this reason, we provide a complete spreadsheet of results, which can be re-sorted and re-ordered according to arbitrary balancing criteria.
1. Mortality for patients is defined by the value of the “end_status_study” field. Patients are deemed dead if and only if the value of this field is “DEATH”; any other value is interpreted as survival;
2. Disease symptom progression is measured in terms of the change in total ALSFRS-R score from baseline, as reported in the “change from baseline” attribute of each patient. Specifically, we take the value of “change from baseline” that is reported at the final measurement time for each patient.;
4. We impose minimum subgroup size filters on our results to exclude promising signals which arise due to sampling artifacts, or which would be too narrow for consideration in future studies. Analyses were run for minimum group sizes of both 50 patients (data not shown) and 100 patients (i.e. for a cutoff of N, we require at least N patients in that subgroup for both the treated and untreated groups).

[7] = system: dopamine receptors
[8] = system: rodents; conditions: approximately
[9] = system: rodents; conditions: single oral dose, and above; cited from earlier work
[10] = system: dogs; conditions: single oral dose, and above; cited from earlier work
[11] = system: monkeys; conditions: single oral dose; cited from earlier work
[12] = system: humans; conditions: cited from earlier work
[13] = high-creatinine group, through 12 months

Which “headaches reported, subjects receiving riluzole vs those not receiving riluzole” value [1] does the source give for Nc1nc2ccc(OC(F)(F)F)cc2s1 [riluzole] here?
The value was “four times as many subjects”.

What about the “effect on ALSFRS-R score” value [2] of the same compound?
The value was “has not demonstrated any effect”.

For CC(=O)N1N=C(c2ccc(N)cc2)c2cc3c(cc2C[C@H]1C)OCO3 [talampanel], which “treatment effects in ALS” value [3] is on record?
The value was “failed to show any treatment effects”.

For CCCN[C@@H]1CCc2nc(N)sc2C1 [dexpramipexole, (6R)-2-amino-4,5,6,7-tetrahydro-6-(propylamino)-benzothiazole], which “ALSFRS-R score change vs placebo group (exploratory analysis with covariate adjustment)” value ([4]; 300 mg group, Month 18) is on record?
Its value is “significant improvement”.

And the “ALSFRS-R subdomain: behaviors associated with bulbar function, decline over baseline” value ([4]; 300 mg/day)?
The value was “less dramatic decline”.

What about the “ALSFRS-R subdomain: behaviors associated with fine motor skills” value ([4]; 300 mg/day) of the same compound?
Its value is “dose dependent improvement over baseline”.

And the “combined assessment of function and survival (CAFS), least square means” value ([4]; high-creatinine group (baseline serum creatinine > about 72 μmol/L), 150 mg twice daily, through 12 months)?
The value was 184.86.

What about the “slope of decline on the ALS Functional Rating Scale (Revised), least square means” value ([4]; high-creatinine group, 150 mg twice daily, through 12 months) of the same compound?
The value was −0.925.

What about the “ALSFRS-R slope of decline, improvement in least square means between treatment and placebo” value [4, 13] of the same compound?
Its value is 18%.

And the “CAFS improvement in least square means between treatment and placebo” value [4, 13]?
Its value is 19%.

What about the “rate of mortality (Kaplan-Meier analysis)” value ([4]; high-creatinine group, treatment group at 12 months) of the same compound?
The value was 10.3%.

And the “decline in levels of serum creatinine” value ([5]; 50 mg group)?
The value was 0.05.

And the “decline in levels of serum creatinine” value ([5]; 150 mg group)?
Its value is 0.06.

And the “decline in levels of serum creatinine” value ([5]; 300 mg group)?
Its value is 0.0.

And the “combined assessment of function and survival (CAFS)” value ([5]; Part Two, 300 mg daily dose, p=0.040)?
The value was “significantly reduced reduction”.

And the “mean decline in serum creatinine” value ([5]; Part Two, daily dose 50 mg)?
The value was −0.12.

And the “mean decline in serum creatinine” value ([5]; Part Two, daily dose 300 mg)?
Its value is “zero”.

What about the “relative change in the mean ALSFRS-R change from baseline, treated vs untreated” value ([6]; definite diagnosis subgroup) of the same compound?
Its value is −8.3%.

What about the “abs_mort_rate_change: absolute difference in mortality rate, treated vs untreated” value ([6]; in vivo) of the same compound?
Its value is −22.6%.

And the “mort rate change: relative change in mortality rate, treated vs untreated” value ([6]; in vivo)?
The value was −67.9%.

What about the “mortality rate lower for treated patients” value ([6]; in vivo) of the same compound?
The value was 22.6 percentage points.

What about the “score: combined score of mortality and ALSFRS-R treatment effects” value ([6]; in vivo) of the same compound?
Its value is 0.343.

And the “trtd_mort_rate: mortality rate of treated patients” value ([6]; in vivo)?
Its value is 10.7%.

And the “relative change in the mean ALSFRS-R change from baseline, treated vs untreated” value ([6]; subgroup mean_pr_interval>184.5, minimum group size 100)?
Its value is −20.5%.

And the “abs_alsfrs_change: absolute difference in mean ALSFRS-R total scores, treated vs untreated” value ([6]; subgroup min_pr_interval>195)?
The value was 5.623 points.

And the “alsfrs change: relative change in mean ALSFRS-R change from baseline, treated vs untreated” value ([6]; subgroup min_pr_interval>195, minimum group size 50)?
Its value is −26.6%.

And the “functional affinity difference between pramipexole and dexpramipexole for dopamine receptors” value [7]?
Its value is 10,000-20,000 folds.

For CCCN[C@H]1CCc2nc(N)sc2C1 [pramipexole, (6S)-2-amino-4,5,6,7-tetrahydro-6-(propylamino)benzothiazole], which “human dose equivalent to the rodent lethal dose, 70 kilogram individual” value [8] is on record?
The value was 500-850 milligrams.

And the “dose at which death occurred” value [9]?
Its value is 70-105 milligrams per kilogram.

And the “dose at which vomiting occurred” value [10]?
Its value is no less than 0.0007 milligrams per kilogram.

What about the “dose at which major excitation was displayed” value [11] of the same compound?
The value was 3.5 milligrams per kilogram.

And the “maximally tolerated dose for humans” value ([12]; Boehringer Ingelheim product insert for Mirapex)?
The value was 4.5 milligrams per day.

What about the “initial single dose not tolerated” value ([12]; human subjects) of the same compound?
Its value is “greater than 0.20 milligrams”.

And the “dose shown to cause somnolence” value ([12]; humans, as low as)?
Its value is 1.5 milligrams.
